Literature values, collected in US5849263A, “Pharmaceutical compositions containing alkylaryl polyether alcohol polymer” (priority 1996, dated 1998).

Conditions: in vivo

For CCCCCCCCCCCCCCCC(=O)OCC(COP(=O)([O-])OCC[N+](C)(C)C)OC(=O)CCCCCCCCCCCCCCC (stereo not shown) [DPPC, diphalmitoylphosphatidyl choine], which “undesired features / side effects of formulation” value is on record?
The value was “mucus plugging of the airways and obstruction of ventilator circuits”.
